Data from paper PMC8466373, “Plant-Derived and Dietary Hydroxybenzoic Acids—A Comprehensive Study of Structural, Anti-/Pro-Oxidant, Lipophilic, Antimicrobial, and Cytotoxic Activity in MDA-MB-231 and MCF-7 Cell Lines” (Nutrients, 2021).
Values after ≈ are worked out from the molar mass of the structure shown. Like-named read-outs stand apart in the source and are kept apart here. Marks after values point to notes of the source that are not given here.

Assays:
[1] = ABTS assay; assay type: biochemical; settings: 50 μM, methanolic solutions, 7 min of reaction time
Procedure: ABTS assay was conducted according to the procedure of Re et al.. […] The absorbance of the solutions was measured with a UV–Vis spectrophotometer at 734 nm against methanol (the blank). The ability to scavenge ABTS^•+ cation radicals was expressed as the %I of ABTS^•+ and calculated according to the aforementioned equation.

[2] = FRAP assay (ferric-reducing antioxidant power); assay type: biochemical; parameters: key: (-): Negative values were obtained for these acids; settings: concentration of 50 μM, methanolic solutions
Procedure: FRAP assay was carried out as described in [42]. […] After 8 min of incubation at 23 °C, the absorbance at 595 nm was measured against the blank (containing 0.4 mL of methanol instead of the sample). Ferric-reducing antioxidant activity was expressed as Fe(II) ion equivalents (μM) using the calibration curve obtained for FeSO4 (the standard curve equation: y = 3.4303x − 0.1058; R^2 = 0.9984).

[3] = test system: Salmonella enteritidis (NCTC 4776); test: MIC by serial dilution in agar medium; assay type: cell-based; settings: Salmonella enterica; Salmonella enteritidis; read-out: MIC
Procedure: (§1) The following bacterial strains were used in this study: Escherichia coli (PCM 2857), Pseudomonas aeruginosa (PCM 2720), Bacillus subtilis (PCM 2850), Staphylococcus aureus (PCM 2267), Salmonella enteritidis (NCTC 4776), and Candida albicans (PCM 2566-FY). The microbial strains were bought from the Polish Collection of Microorganisms (Wroclaw, Poland) or the American Type Culture Collection.
(§2) The MIC (minimal inhibitory concentration) was determined by serial dilution of the tested compound in an agar medium, to which the appropriate inoculum of microorganisms was then added and incubated. Escherichia coli, Pseudomonas aeruginosa, Staphylococcus aureus, Bacillus subtilis, Salmonella enteritidis, and Candida albicans were grown overnight and then resuspended in physiological saline to an optical density at 600 nm (OD = 600) of 0.60, corresponding to 5.0 × 10^8 CFU/mL. Bacteria (0.1 mL of the reconstituted suspension) were seeded onto sterile Mueller–Hinton agar plates, to which previously suitable amounts of the tested compounds were added to reach the desired concentration. Tested chemicals were dissolved in DMSO solution. Negative controls were agar plates, to which DMSO was added, while positive controls were plates with gentamycin (in the case of bacteria) or flucanozole (in the case of fungi). The plates were incubated at 37 °C for 24 h. The lowest concentration without visible bacterial growth was determined as the MIC.

[4] = test system: Bacillus subtilis (PCM 2850); test: MIC by serial dilution in agar medium; assay type: cell-based; settings: read-out: MIC
Procedure: as §1, with “Collection. Bacteria (0.1 mL of the reconstituted suspension) were seeded onto sterile Mueller–Hinton agar plates (Biomaxima), to which previously suitable amounts of the tested compounds were added to give the desired concentration.” for “Collection.”
as §2

[5] = test system: Candida albicans (PCM 2566-FY); test: MIC by serial dilution in agar medium; assay type: cell-based; settings: read-out: MIC
Procedure: as §1, with “Collection. Bacteria (0.1 mL of the reconstituted suspension) were seeded onto sterile Mueller–Hinton agar plates (Biomaxima), to which previously suitable amounts of the tested compounds were added to give the desired concentration.” for “Collection.”
as §2

[6] = test system: Escherichia coli (PCM 2857); test: MIC by serial dilution in agar medium; assay type: cell-based; settings: read-out: MIC
Procedure: as §1, with “Collection. Bacteria (0.1 mL of the reconstituted suspension) were seeded onto sterile Mueller–Hinton agar plates (Biomaxima), to which previously suitable amounts of the tested compounds were added to give the desired concentration.” for “Collection.”
as §2

[7] = test system: Pseudomonas aeruginosa (PCM 2720); test: MIC by serial dilution in agar medium; assay type: cell-based; settings: read-out: MIC
Procedure: as §1, with “Collection. Bacteria (0.1 mL of the reconstituted suspension) were seeded onto sterile Mueller–Hinton agar plates (Biomaxima), to which previously suitable amounts of the tested compounds were added to give the desired concentration.” for “Collection.”
as §2

[8] = test system: Staphylococcus aureus (PCM 2267); test: MIC by serial dilution in agar medium; assay type: cell-based; settings: read-out: MIC
Procedure: as §1, with “Collection. Bacteria (0.1 mL of the reconstituted suspension) were seeded onto sterile Mueller–Hinton agar plates (Biomaxima), to which previously suitable amounts of the tested compounds were added to give the desired concentration.” for “Collection.”
as §2

[9] = test system: E. coli, P. aeruginosa, S. aureus, B. subtilis, S. enteritidis, and C. albicans; test: MIC, stated for all tested strains together; assay type: cell-based; settings: all of the tested strains
Procedure: as §1, with “Collection. Bacteria (0.1 mL of the reconstituted suspension) were seeded onto sterile Mueller–Hinton agar plates (Biomaxima), to which previously suitable amounts of the tested compounds were added to give the desired concentration.” for “Collection.”
as §2

[10] = Cytotoxicity, neutral red (NR) assay; assay type: cell-based, human; settings: human, 48 h treatment, neutral red assay
Procedure: Briefly, MCF-7 cells were cultured in EMEM (Biological Industries, Israel) medium supplemented with 10% fetal calf serum (Gibco). MDA-MB-231 cells were cultured in Leibovitz‘s L15 (Biological Industries, Beit HaEmek, Israel) medium supplemented with 10% fetal calf serum (Gibco). The MCF-7 cells were incubated in a 5% CO2 atmosphere at 37 °C, whereas the MDA-231 cells were incubated in a 100% air atmosphere at 37 °C.
Cytotoxicity evaluation was conducted to assess the impact of hydroxybenzoic acids on the proliferation of MCF-7 and MDA-MB-231 cells, which was measured via neutral red (NR) assay. In brief, cells were seeded in 96-well microplates (TPP, Switzerland) at a density of 2 × 10^4 cells/well in 100 μL of culture medium. At least three independent experiments in six replicate wells were conducted per concentration. Twenty-four hours after cell seeding, cells were treated with increasing concentrations of hydroxybenzoic acids (0.02–5 mM) for forty-eight hours. After treatment, cells were incubated for 3 h at 37 °C with 100 µL of neutral red solution (stock solution of NR) (Sigma-Aldrich), and then 5 mg/mL of PBS was diluted 1:100 in cell culture medium, incubated for 12 h at 37 °C, and centrifuged to remove any undissolved NR powder. […] After 15 min of gentle shaking, optical density was read at 540 nm with an Infinite M200 plate reader spectrophotometer (Tecan, Austria).

[11] = Lipophilicity via RP-HPLC; assay type: physicochemical
Procedure: The analyses were carried out on the following chromatographic columns: RP-18e Purospher STAR (C18), 150 mm × 4.0 mm, 5 µm, (Merck, Darmstadt, Germany); RP-8e Purospher STAR (C8), 150 mm × 4.6 mm, 5 µm, (Merck, Darmstadt, Germany); Zorbax Eclipse XDB-CN (CN), 150 mm × 4.6 mm, 5 µm, (Agilent Technologies, Santa Clara, CA, USA); Nucleosil Phenyl (PHE), 250 mm × 4.6 mm, 7 µm, (Supelco, Bellefonte, PA, USA); and Regis Rexchrom IAM.PC.DD.2 (IAM), 100 mm × 4.6 mm, 10 µm, (Regis Technologies Inc., Morton Grave, IL, USA). The experimental conditions and the calculations were as described in [46].

[12] = CABTS = 7 mM, t = 6 min, ref 73; read-out: ABTS, IC50; cited from earlier work
[13] = C = 0,001 mg/mL, λ = 593 nm, t = 30 min; cited from earlier work
[14] = ref 102; cited from earlier work
[15] = cited from earlier work

Which “Inhibition of ABTS•+ radicals (%I)” value [1] does the source give for `O=C(O)c1ccc(O)cc1O` [2,4-DHB, 2,4-Dihydroxybenzoic acid] here?
Its value is 16.17%.

And the FRAP [2]?
The FRAP was “(-) *”.

And the MIC [3]?
The MIC was 2000 µg/mL (≈ 13 mM).

What about the MIC [4] of the same molecule?
The MIC was 2000 µg/mL (≈ 13 mM).

What about the MIC [5] of the same molecule?
The MIC was 2000 µg/mL (≈ 13 mM).

And the MIC [6]?
Its MIC is 2000 µg/mL (≈ 13 mM).

What about the MIC [7] of the same molecule?
Its MIC is 2000 µg/mL (≈ 13 mM).

And the MIC [8]?
The MIC was 2000 µg/mL (≈ 13 mM).

What about the MIC [9] of the same molecule?
The MIC was 2000 µg/mL (≈ 13 mM).

And the IC50 at 48 h ([10]; read-out: Cytotoxicity (mM) in Cell Line MCF-7, IC50)?
The IC50 at 48 h was greater than 5 mM.

What about the IC50 at 48 h ([10]; read-out: Cytotoxicity (mM) in Cell Line MDA-MB-231, IC50) of the same molecule?
The IC50 at 48 h was 4.77 mM.

And the log kw ([11]; C8 column)?
Its log kw is 1.81.

What about the ϕ0 ([11]; C8 column) of the same molecule?
Its ϕ0 is 1.38.

What about the log kw ([11]; C18 column) of the same molecule?
Its log kw is 2.66.

What about the ϕ0 ([11]; C18 column) of the same molecule?
The ϕ0 was 0.57.

And the log kw ([11]; CN column)?
Its log kw is 2.06.

What about the ϕ0 ([11]; CN column) of the same molecule?
The ϕ0 was 1.15.

And the log kw ([11]; IAM column)?
Its log kw is 1.14.

And the ϕ0 ([11]; IAM column)?
Its ϕ0 is 1.00.

And the log kw ([11]; PHE column)?
The log kw was 1.39.

And the ϕ0 ([11]; PHE column)?
The ϕ0 was 1.05.

And the IC50 [12]?
The IC50 was 0.169 mM.

And the FRAP [13]?
Its FRAP is “≈ 0.012 (C = 0,001 mg/mL), λ = 593 nm, t = 30 min) [73] μM Fe^2+”.

What about the LogPexp. [14] of the same molecule?
Its LogPexp. is 1.63 [102].

What about the pKaexp. ([15]; at 25 °C) of the same molecule?
Its pKaexp. is 3.11.

And the pKaexp. ([15]; ref 104)?
The pKaexp. was 3.11.

What about the pKaexp. ([15]; ref 105) of the same molecule?
The pKaexp. was 3.1.
